# Values joined by “and” are separate entries in the source; they are usually repeats but may differ in a detail not shown here. Equal values may be shown once. Read-outs that look alike come from different tables or passages of the source.
# Key:
# [1] = test system: CCRF-CEM human T-cell acute lymphoblastic leukemia cell line; assay: XTT cytotoxicity (cell growth inhibition), CCRF-CEM; details: for times less active than corresponding epothilone A counterpart (cytotoxicity): see Table 1
# Description: (§1) The DC-3F hamster lung fibroblast cell line and its actinomycin D-selected sublines (DC-3F/ADII and DC-3F/ADX) were obtained from the Memorial Sloan-Kettering Cancer Center (MSKCC).
# (§2) The drug-resistant cell lines were continuously cultured in the presence of the selecting agent, AD, DX, VBL or VM to maintain the drug resistant phenotypes. […] All cells were cultured in RPMI 1640-10% FBS at 37° C. 5% CO2 (see below).
# (§3) The cells were cultured at an initial density of 5×10^4 cells/mL. They were maintained in a 5% CO2-humidified atmosphere at 37° C. in RPMI-1640 medium (GIBCO-BRL, Gaithersburg, Md.) containing penicillin (100 U/mL), streptomycin ([…]) (GIBCO-BRL) and 10% heat inactivate fetal bovine serum. Culture for cell suspension (such as for CCRF-CEM, P388 and sublines), were performed by the XTT-microculture tetrazonium method (Scudiero, D. A. et al., Cancer Res. 1988, 48, 4827-4833) in duplicate in 96-well microtiter plates.
# (§4) 2′,3′-Bis(methoxy-4-nitro-5-sufophenyl)-5-[(phenylamino)carbonyl]2H-tetrazolium hyudroxide (XTT) was prepared at 1 mg/mL in prewarmed (37° C.) medium without serum. Phenazine methosulfate (PMS) and fresh XTT were mixed together to obtain 0.025 mM PMS-XTT solution (25 μL of the stock 5 mM PMS was added per 5 mL of 1 mg/mL XTT). Following a 72 h incubation, 50 μL of the assay aliquots were added to each well of the cell culture. After incubation at 37° C. for 4 h, absorbance at 450 nm and 630 nm was measured with a microplate reader (EL340, Bio-Tek Instruments, Inc., Winooski, Vt.).
# CCRF-CEM/VBL100 = assay: cells; type: cell-based, human
# Description: as §2, §3, §4
# CCRF-CEM/VM1 = assay: cells; type: cell-based, human
# Description: as §2, §3, §4
# [2] = test system: DC-3F hamster lung fibroblast cell line; assay: SRB cytotoxicity, DC-3F; type: cell-based; details: Table 3; read-out: IC50
# Description: as §1, §2
# (§5) The cytotoxicity of the drug toward the monolayer cell cultures (such as DC-3F, MCF-7, SK-N-As and sublines) was determined in 96-well microtiter plates by the SRB method as described by Skehan and co-workers (Skehan, P., et al., J. Natl. Cancer Inst. 1990, 82, 1107-1112) for measuring the cellular protein content. Cultures were fixed with trichloroacetic acid and then stained for 30 min with 0.4% suforhodamine B dissolved in 1% acetic acid. Unbound dye was removed by acetic acid washes, and the protein-bound dye was extracted with an unbuffered Tris base (tris(hydroxy-methyl)aminomethane) for determination of absorbance at 570 nm in a 96-well microtiter plate reader. The experiments were carried out in duplicate. Each run entailed six to seven concentrations of the tested drugs. Data were analyzed with the median-effect plot (Chou, T.-C. & Talalay, P. T. (1984) Adv. Enzyme Regul. 22, 27-55) using a previously described computer program (Chou, J., & Chou T.-C. 1987, Dose-effect analysis with microcomputers: Quantitation of ED50, synergism, antagonism, low-dose risk, reception-ligand binding and enzyme kinetics, IBM-PC software and manual, Biosoft, Cambridge, U.K.).
# DC-3F/ADII = assay: SRB cytotoxicity, DC-3F/ADII; type: cell-based, hamster; details: Table 3; read-out: IC50
# Description: as §1, §2, §5
# (§6) Concerning Table 3, experiments were carried out using the cell lines DC-3F (parent hamster lung cells), DC-3F/ADII (moderate multidrug-resistant (MDR) cells) and DC-3F/ADX (very strong MDR cells).
# DC-3F/ADX = assay: cells; type: cell-based, hamster; details: Table 3; read-out: IC50
# Description: as §1, §2, §5, §6
# [3] = Table 6, single determinations, read-out: IC50
# [4] = Table 7, CEM/VBL, read-out: IC50
# [5] = Table 2, CCRF-CEM/VLB, read-out: IC50
# [6] = Table 6, read-out: IC50 (mean ± of determinations, in parentheses)
# [7] = Table 2, CCR-CEM/VM-1, read-out: IC50
compound,measurement,setting,value
C=CC[C@H](OC(=O)C[C@H](O)C(C)(C)C(=O)[C@H](C)[C@@H](O)[C@@H](C)CCCC(=C)C)/C(C)=C/c1csc(C)n1 [#13],IC50,"[1]; Table 6, single determinations",11.5 µM
same,IC50,"[1]; Table 7, CEM",11.5 µM
same,IC50,CCRF-CEM/VBL100; [3],5.63 µM
same,IC50,CCRF-CEM/VBL100; [4],5.63 µM
same,IC50,CCRF-CEM/VM1; [3],14.5 µM
"C/C(=C\c1csc(C)n1)[C@@H]1C/C=C\CCCC[C@H](O)[C@@H](C)C(=O)C(C)(C)[C@@H](O)CC(=O)O1 [#14, Desmethyldesoxyepothilone A]",IC50,"[1]; Table 1, XTT",5 µM
same,IC50,"[1]; Table 6, single determinations",5.42 µM
same,IC50,"[1]; Table 7, CEM",5.42 µM
same,times less active than corresponding epothilone A counterpart (cytotoxicity),[1],approximately 200 times
same,IC50,"CCRF-CEM/VBL100; Table 1, XTT, read-out: IC50",5.75 µM
same,IC50,CCRF-CEM/VBL100; [3],5.75 µM
same,IC50,CCRF-CEM/VBL100; [4],5.75 µM
same,IC50,"CCRF-CEM/VM1; Table 1, XTT, read-out: IC50",6.29 µM
same,IC50,CCRF-CEM/VM1; [3],6.29 µM
"C/C(=C\c1csc(C)n1)C1CC2OC2CCCCC(O)C(C)C(=O)C(C)(C)C(O)CC(=O)O1 (stereo not drawn) [#15, 8-Desmethylepothilone A]",IC50,[1],0.44 µM
same,Rel. Value (potency relative to Epo B),[1]; CCRF-CEM leukemic cells,1/1257
same,IC50,"[1]; Table 1, XTT",0.439 µM
same,IC50,"[1]; Table 6, single determinations",0.439 µM
same,IC50,"[1]; Table 7, CEM",0.439 µM
same,times less active than corresponding epothilone A counterpart (cytotoxicity),[1],approximately 200 times
same,IC50,"CCRF-CEM/VBL100; Table 1, XTT, read-out: IC50",2.47 µM
same,IC50,CCRF-CEM/VBL100; [3],2.47 µM
same,IC50,CCRF-CEM/VBL100; [4],2.47 µM
same,IC50,"CCRF-CEM/VM1; Table 1, XTT, read-out: IC50",0.764 µM
same,IC50,CCRF-CEM/VM1; [3],0.764 µM
C/C(=C\c1csc(C)n1)[C@@H]1C[C@H]2O[C@H]2CCCC[C@H](O)[C@@H](C)C(=O)C(C)(C)[C@@H](O)CC(=O)O1 [#16],IC50,"[1]; Table 6, single determinations",7.47 µM
same,IC50,"[1]; Table 7, CEM",7.47 µM
same,IC50,CCRF-CEM/VBL100; [3],16.5 µM
same,IC50,CCRF-CEM/VBL100; [4],16.5 µM
same,IC50,CCRF-CEM/VM1; [3],0.976 µM
"C/C(=C\c1csc(C)n1)[C@@H]1C[C@@H]2O[C@@H]2CCC[C@H](C)[C@H](O)[C@@H](C)C(=O)C(C)(C)[C@@H](O)CC(=O)O1 [EPOTHILONE A NATURAL, epothilone A]",IC50,[1]; Table 2,0.0035 µM
same,IC50,"[1]; Table 6, single determinations",0.0024 µM and 0.0031 µM
same,IC50,"[1]; read-out: IC50 (mean ± of determinations, in parentheses), Table 6",0.0027 µM
same,IC50,CCRF-CEM/VBL100; [5],0.0272 µM
same,relative resistance (fold) vs parent cell line,CCRF-CEM/VBL100; Table 6,(7.4X)
same,IC50,CCRF-CEM/VBL100; [6],0.02 µM
same,IC50,CCRF-CEM/VBL100; [3],0.0211 µM and 0.0189 µM
same,IC50,CCRF-CEM/VM1; [7],0.0034 µM
same,relative resistance (fold) vs parent cell line,CCRF-CEM/VM1; Table 6,(2.3X)
same,IC50,CCRF-CEM/VM1; [6],0.00613 µM
same,IC50,CCRF-CEM/VM1; [3],0.006 µM and 0.00625 µM
same,IC50,[2],0.00368 µM
same,IC50,DC-3F/ADII,0.0124 µM
same,IC50,DC-3F/ADX,0.0533 µM
"C/C(=C\c1csc(C)n1)[C@@H]1C[C@@H]2O[C@@H]2CCC[C@H](C)[C@H](O)[C@@H](C)C(=O)C(C)(C)[C@@H](O)CC(=O)O1 [EPOTHILONE A SYNTHETIC, epothilone A]",IC50,[1]; Table 2,0.0029 µM
same,IC50,"[1]; Table 5, single determinations",0.0021 µM
same,IC50,CCRF-CEM/VBL100; [5],0.0203 µM
same,IC50,"CCRF-CEM/VBL100; Table 5, CCRF-CEM/VLB, single determinations, read-out: IC50",0.015 µM
same,IC50,CCRF-CEM/VM1; [7],0.0034 µM
same,IC50,[2],0.00354 µM
same,IC50,DC-3F/ADII,0.0132 µM
same,IC50,DC-3F/ADX,0.07 µM
epothilone B,IC50,"[1]; Table 6, single determinations",0.00033 µM
same,relative resistance (fold) vs parent cell line,CCRF-CEM/VBL100; Table 6,(6.1X)
same,IC50,CCRF-CEM/VBL100; [3],0.0021 µM
same,relative resistance (fold) vs parent cell line,CCRF-CEM/VM1; Table 6,(3.6X)
same,IC50,CCRF-CEM/VM1; [3],0.0012 µM

# From patent US6603023B2 (priority 1996, dated 2003)
